Data: US10906890B2, “Triazole phenyl compounds as agonists of the APJ receptor” (AMGEN INC., priority 2016, dated 2021)
pEC50: −log10 of the molar value.

molecular target: human APJ receptor (Homo sapiens (Human), UniProt P35414); assay: [35S]GTPγS binding assay on membranes from CHO cells stably expressing human APJ receptor; assay type: biochemical; conditions: means of several independent experiments, read-out: Activity hAPJ SPA EC50 IP
Procedure, shortened: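 Membranes from CHO cells stably expressing FLAG-tagged human APJ incubated with [35S]GTPγS in buffer with optimized GDP, MgCl2 and NaCl levels, 90 min at RT. Signal read by imaging; EC50 by non-linear regression from means of several independent experiments.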

Sequence of human APJ receptor (P35414 whole entry): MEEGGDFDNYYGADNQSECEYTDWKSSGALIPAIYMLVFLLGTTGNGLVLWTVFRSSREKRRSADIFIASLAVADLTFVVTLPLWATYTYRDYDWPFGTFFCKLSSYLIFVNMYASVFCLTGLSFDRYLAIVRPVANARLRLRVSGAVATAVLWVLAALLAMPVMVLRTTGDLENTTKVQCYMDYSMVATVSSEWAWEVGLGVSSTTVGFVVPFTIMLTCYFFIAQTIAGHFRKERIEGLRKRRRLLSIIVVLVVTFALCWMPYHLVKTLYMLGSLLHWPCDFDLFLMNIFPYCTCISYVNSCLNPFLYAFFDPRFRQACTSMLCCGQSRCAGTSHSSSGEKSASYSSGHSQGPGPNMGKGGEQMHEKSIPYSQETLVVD

First: C[C@H](c1ncc(C#N)cn1)[C@H](C)S(=O)(=O)Nc1nnc(-c2ccccc2)n1-c1c(F)cccc1F [Example 47.0, (2S,3R)-3-(5-cyano-2-pyrimidinyl)-N-(4-(2,6-difluorophenyl)-5-phenyl-4H-1,2,4-triazol-3-yl)-2-butanesulfonamide]
Second: COc1cccc(OC)c1-n1c(NS(=O)(=O)[C@@H](C)[C@H](OC)c2ncc(C)cn2)nnc1-c1ccccc1 [Example 77.0, (1R,2S)-N-(4-(2,6-dimethoxyphenyl)-5-phenyl-4H-1,2,4-triazol-3-yl)-1-methoxy-1-(5-methyl-2-pyrimidinyl)-2-propanesulfonamide]
The pEC50 of the first is 1.68 log units lower: 7.32 for the first, 9.00 for the second. The second is the more potent here.

First: COc1ncnc(OC)c1-n1c(NS(=O)(=O)[C@@H](C)[C@H](C)c2ncc(C)cn2)nnc1-c1cccc(C(F)(F)F)c1 [Example 48.0]
Second: COc1ncnc(OC)c1-n1c(NS(=O)(=O)[C@@H](C)[C@H](C)c2ncc(C)cn2)nnc1-c1cccc(C#N)c1 [Example 50.0, (2S,3R)-N-(5-(3-cyanophenyl)-4-(4,6-dimethoxy-5-pyrimidinyl)-4H-1,2,4-triazol-3-yl)-3-(5-methyl-2-pyrimidinyl)-2-butanesulfonamide]
The pEC50 of the first is 0.68 log units higher: 7.64 for the first, 6.96 for the second. The first is the more potent here.

First: COc1cccc(OC)c1-n1c(NS(=O)(=O)c2cncc(Br)c2)nnc1-c1ccccc1 [Example 60.0, 5-bromo-N-(4-(2,6-dimethoxyphenyl)-5-phenyl-4H-1,2,4-triazol-3-yl)-3-pyridinesulfonamide]
Second: COc1cccc(OC)c1-n1c(NS(=O)(=O)[C@@H](C)[C@H](OC)c2ncc(C)cn2)nnc1-c1cccc(Br)c1 [Example 81.0, (1R,2S)-N-(5-(3-bromophenyl)-4-(2,6-dimethoxyphenyl)-4H-1,2,4-triazol-3-yl)-1-methoxy-1-(5-methyl-2-pyrimidinyl)-2-propanesulfonamide]
The pEC50 of the first is 3.11 log units lower: 6.46 for the first, 9.57 for the second.

`C[C@H](c1ncc(Cl)cn1)[C@H](C)S(=O)(=O)Nc1nnc(-c2ccccc2)n1C1CCOCC1` [Example 61.0, (2S,3R)-3-(5-chloro-2-pyrimidinyl)-N-(5-phenyl-4-(tetrahydro-2H-pyran-4-yl)-4H-1,2,4-triazol-3-yl)-2-butanesulfonamide] and `CO[C@H](c1ncc(Cl)cn1)[C@H](C)S(=O)(=O)Nc1nnc(-c2ccccc2)n1C1CCOCC1` [Example 62.0, (1R,2S)-1-(5-chloro-2-pyrimidinyl)-1-methoxy-N-(5-phenyl-4-(tetrahydro-2H-pyran-4-yl)-4H-1,2,4-triazol-3-yl)-2-propanesulfonamide] are within 0.2 log units of each other in pEC50: 7.16 for the first, 7.13 for the second.

Going from `Cc1cnc([C@H](OC(C)C)[C@H](C)S(=O)(=O)Nc2nnc(-c3ccccc3)n2C2CCOCC2)nc1` [Example 63.0, (1S,2S)-1-(1-methylethoxy)-1-(5-methyl-2-pyrimidinyl)-N-(5-phenyl-4-(tetrahydro-2H-pyran-4-yl)-4H-1,2,4-triazol-3-yl)-2-propanesulfonamide] to `COc1cccc(OC)c1-n1c(NS(=O)(=O)[C@@H](C)[C@H](OC)c2ncc(C)cn2)nnc1-c1ccccc1F` [Example 67.0, (1R,2S)-N-(4-(2,6-dimethoxyphenyl)-5-(2-fluorophenyl)-4H-1,2,4-triazol-3-yl)-1-methoxy-1-(5-methyl-2-pyrimidinyl)-2-propanesulfonamide], the pEC50 rises from 6.38 to 8.23 (1.85 log units).

Going from `COc1cccc(OC)c1-n1c(NS(=O)(=O)[C@@H](C)[C@H](OC)c2ncc(C)cn2)nnc1-c1ccc(C(C)(C)C)cc1` [Example 65.0, (1R,2S)—N-(5-(4-tert-Butylphenyl)-4-(2,6-dimethoxyphenyl)-4H-1,2,4-triazol-3-yl)-1-methoxy-1-(5-methyl-2-pyrimidinyl)-2-propanesulfonamide] to `COc1cccc(OC)c1-n1c(NS(=O)(=O)[C@@H](C)[C@H](OC)c2ncc(C)cn2)nnc1-c1ccc(C)cc1` [Example 78.0, (1R,2S)-N-(4-(2,6-dimethoxyphenyl)-5-(4-methylphenyl)-4H-1,2,4-triazol-3-yl)-1-methoxy-1-(5-methyl-2-pyrimidinyl)-2-propanesulfonamide], the pEC50 rises from 6.64 to 8.62 (1.98 log units).

First: COc1cccc(OC)c1-n1c(NS(=O)(=O)[C@@H](C)[C@H](OC)c2ncc(C)cn2)nnc1-c1ccc2c(c1)OCO2 [Example 66.0, (1R,2S)-N-(5-(1,3-benzodioxol-5-yl)-4-(2,6-dimethoxyphenyl)-4H-1,2,4-triazol-3-yl)-1-methoxy-1-(5-methyl-2-pyrimidinyl)-2-propanesulfonamide]
Second: COc1cccc(OC)c1-n1c(NS(=O)(=O)[C@@H](C)[C@H](OC)c2ncc(C)cn2)nnc1-c1ccc2c(c1)CCO2 [Example 80.0, (1R,2S)-N-(5-(2,3-dihydro-1-benzofuran-5-yl)-4-(2,6-dimethoxyphenyl)-4H-1,2,4-triazol-3-yl)-1-methoxy-1-(5-methyl-2-pyrimidinyl)-2-propanesulfonamide]
The pEC50 of the first is 0.68 log units higher: 9.14 for the first, 8.46 for the second.

`COc1cccc(OC)c1-n1c(NS(=O)(=O)[C@@H](C)[C@H](OC)c2ncc(C)cn2)nnc1-c1cc(C(F)(F)F)cc(C(F)(F)F)c1` [Example 68.0, (1R,2S)-N-(5-(3,5-bis(trifluoromethyl)phenyl)-4-(2,6-dimethoxyphenyl)-4H-1,2,4-triazol-3-yl)-1-methoxy-1-(5-methyl-2-pyrimidinyl)-2-propanesulfonamide] and `COc1cccc(OC)c1-n1c(NS(=O)(=O)[C@@H](C)[C@H](OC)c2ncc(C)cn2)nnc1-c1ccc(F)c(F)c1` [Example 72.0, (1R,2S)-N-(5-(3,4-difluorophenyl)-4-(2,6-dimethoxyphenyl)-4H-1,2,4-triazol-3-yl)-1-methoxy-1-(5-methyl-2-pyrimidinyl)-2-propanesulfonamide] are within 0.2 log units of each other in pEC50: 8.33 for the first, 8.35 for the second.

First: COc1cccc(OC)c1-n1c(NS(=O)(=O)[C@@H](C)[C@H](OC)c2ncc(C)cn2)nnc1-c1ccc(OC(F)(F)F)cc1 [Example 69.0, (1R,2S)-N-(4-(2,6-dimethoxyphenyl)-5-(4-(trifluoromethoxy)phenyl)-4H-1,2,4-triazol-3-yl)-1-methoxy-1-(5-methyl-2-pyrimidinyl)-2-propanesulfonamide]
Second: COc1cccc(OC)c1-n1c(NS(=O)(=O)[C@@H](C)[C@H](OC)c2ncc(C)cn2)nnc1-c1ccc(Oc2ccccc2)cc1 [Example 82.0, (1R,2S)-N-(4-(2,6-dimethoxyphenyl)-5-(4-phenoxyphenyl)-4H-1,2,4-triazol-3-yl)-1-methoxy-1-(5-methyl-2-pyrimidinyl)-2-propanesulfonamide]
The pEC50 of the first is higher: 7.46 for the first, under 5.38 for the second.

Compared with `COc1cccc(OC)c1-n1c(NS(=O)(=O)[C@@H](C)[C@H](OC)c2ncc(C)cn2)nnc1-c1ccc(Cl)c(Cl)c1` [Example 70.0, (1R,2S)-N-(5-(3,4-dichlorophenyl)-4-(2,6-dimethoxyphenyl)-4H-1,2,4-triazol-3-yl)-1-methoxy-1-(5-methyl-2-pyrimidinyl)-2-propanesulfonamide], `COc1cccc(OC)c1-n1c(NS(=O)(=O)[C@@H](C)[C@H](OC)c2ncc(C)cn2)nnc1-c1ccc(Cl)cc1Cl` [Example 71.0, (1R,2S)-N-(5-(2,4-dichlorophenyl)-4-(2,6-dimethoxyphenyl)-4H-1,2,4-triazol-3-yl)-1-methoxy-1-(5-methyl-2-pyrimidinyl)-2-propanesulfonamide] is 1.62 log units lower in pEC50: 8.42 for the first, 6.80 for the second. The first is the more potent here.

Going from `COc1cccc(OC)c1-n1c(NS(=O)(=O)[C@@H](C)[C@H](OC)c2ncc(C)cn2)nnc1-c1cccc(S(=O)(=O)N(C)C)c1` [Example 73.0, 3-(4-(2,6-dimethoxyphenyl)-5-((((1S,2R)-2-methoxy-1-methyl-2-(5-methyl-2-pyrimidinyl)ethyl)sulfonyl)amino)-4H-1,2,4-triazol-3-yl)-N,N-dimethylbenzenesulfonamide] to `COc1cccc(-c2nnc(NS(=O)(=O)[C@@H](C)[C@H](OC)c3ncc(C)cn3)n2-c2c(OC)cccc2OC)c1` [Example 76.0, (1R,2S)-N-(4-(2,6-dimethoxyphenyl)-5-(3-methoxyphenyl)-4H-1,2,4-triazol-3-yl)-1-methoxy-1-(5-methyl-2-pyrimidinyl)-2-propanesulfonamide], the pEC50 rises from 7.51 to 9.29 (1.78 log units).

Compared with `COc1cccc(OC)c1-n1c(NS(=O)(=O)[C@@H](C)[C@H](OC)c2ncc(C)cn2)nnc1-c1ccc2nc(N)sc2c1` [Example 74.0, (1R,2S)-N-(5-(2-amino-1,3-benzothiazol-6-yl)-4-(2,6-dimethoxyphenyl)-4H-1,2,4-triazol-3-yl)-1-methoxy-1-(5-methyl-2-pyrimidinyl)-2-propanesulfonamide], `COc1cccc(OC)c1-n1c(NS(=O)(=O)[C@@H](C)[C@H](OC)c2ncc(C)cn2)nnc1-c1ccc2nccnc2c1` [Example 84.0, (1R,2S)-N-(4-(2,6-dimethoxyphenyl)-5-(6-quinoxalinyl)-4H-1,2,4-triazol-3-yl)-1-methoxy-1-(5-methyl-2-pyrimidinyl)-2-propanesulfonamide] is 0.41 log units higher in pEC50: 6.85 for the first, 7.26 for the second.

Going from `COc1ccc(-c2nnc(NS(=O)(=O)[C@@H](C)[C@H](OC)c3ncc(C)cn3)n2-c2c(OC)cccc2OC)cc1C#N` [Example 75.0, (1R,2S)-N-(5-(3-cyano-4-methoxyphenyl)-4-(2,6-dimethoxyphenyl)-4H-1,2,4-triazol-3-yl)-1-methoxy-1-(5-methyl-2-pyrimidinyl)-2-propanesulfonamide] to `COc1ccc(OC)c(-c2nnc(NS(=O)(=O)[C@@H](C)[C@H](OC)c3ncc(C)cn3)n2-c2c(OC)cccc2OC)c1` [Example 79.0, (1R,2S)-N-(5-(2,5-dimethoxyphenyl)-4-(2,6-dimethoxyphenyl)-4H-1,2,4-triazol-3-yl)-1-methoxy-1-(5-methyl-2-pyrimidinyl)-2-propanesulfonamide], the pEC50 rises from 7.89 to 8.42 (0.53 log units).

Molecule `CCN(CC)c1ccc(-c2nnc(NS(=O)(=O)[C@@H](C)[C@H](OC)c3ncc(C)cn3)n2-c2c(OC)cccc2OC)cc1` [Example 83.0, (1R,2S)-N-(5-(4-(diethylamino)phenyl)-4-(2,6-dimethoxyphenyl)-4H-1,2,4-triazol-3-yl)-1-methoxy-1-(5-methyl-2-pyrimidinyl)-2-propanesulfonamide] has a pEC50 of 7.05.
